Laboratory results reported in patent publication US20120058133A1, “INHIBITION OF TRNA SYNTHETASES AND THERAPEUTIC APPLICATIONS THEREOF” (President and Fellows of Harvard College, priority 2009, published 2012).
“Also recorded” adds a separate entry of the source.

Experiments:
Smad2 phosphorylation = assay: TGFβ-stimulated Smad2 phosphorylation in fibroblasts; assay type: cell-based, mouse
Procedure: FIG. 30. Proline addition to fibroblasts rescues HF-inhibition of TGFβ Signaling. MEFs were treated with HF for 12 hours in the presence or absence of 2 mM proline, treated with 2 ng/mL TGFβ for 1 hour, and assayed for total Smad2 or pSmad2 by Western blot. Total and pSmad2 levels were quantitated using Image J software (bottom panel). Data are representative of three separate experiments.
FIG. 31. HF Dose response for pGCN2-induction and pSmad2-inhibition. Fibroblasts were treated for 12 hours with the indicated dose of HF and analyzed for Smad2 or GCN2 phosphorylation by Western blot. Data are representative of three separate experiments.
FIG. 32. pSmad2 inhibition by HF develops slowly over time. Fibroblasts were treated for the indicated time with 20 nM HF, then treated for 1 hr with 2 ng/mL TGFβ and analyzed for phosphorylation of Smad2 or GCN2 by Western blot. Data are representative of three separate experiments. Bottom panel: Western data in top panel were quantitated using Image J software.

EPRS = assay: Prolyl-tRNA charging by purified EPRS; assay type: biochemical, rat
Source text: FIG. 23E is a graph showing that HF inhibits purified EPRS activity. EPRS was purified from rat liver and assayed for prolyl-tRNA charging activity as previously described (Ting, S. M., Bogner, P. & Dignam, J. D. Isolation of prolyl-tRNA synthetase as a free form and as a form associated with glutamyl-tRNA synthetase. J Biol Chem 267, 17701-17709, (1992)). Data are representative of three separate experiments.
The effects of HF on prolyl-tRNA charging was examined. RRL were supplemented with ^14C-Pro or ^35S-Met in the presence or absence of HF, and total tRNA was isolated (FIG. 23D).

dermal ECM deposition = settings: Pines et al. 2003; cited from earlier work
[1] = test system: amino acid starvation response in splenocytes; assay: In vivo AAR activation in splenocytes of HF-injected mice; design: species or system mouse; settings: i.p. injection, 6 hours
Procedure: FIG. 20F, left panel, depicts western blot analysis of protein from cells of wild-type mice injected i.p. with vehicle (DMSO) or […] HF. Spleens were harvested 6 hours post injection, red blood cells were removed by NH4Cl lysis buffer and immunoblotting for phosphorylated or total eIF2a was performed on whole cell extracts. FIG. 20F, right panel is a graph depicting levels of AAR-associated gene expression (Asns, Gpt2, eIF4Ebp1) analyzed by quantitative real-time PCR using cDNA from splenocytes of mice treated with DMSO or HF as above. Expression of AAR-associated transcripts were normalized to Hprt levels and data are presented as mean relative expression from duplicate samples ±SD. All data represent 2-3 similar experiments.

Structure (SMILES): O=C(CC1NCCCC1O)Cn1cnc2cc(Br)c(Cl)cc2c1=O (racemic) [HF, halofuginone]
- time course of Smad2 inhibition versus GCN2 phosphorylation (Smad2 phosphorylation; 20 nM HF): much slower
- reversal of Smad2 phosphorylation inhibition by proline (Smad2 phosphorylation; 2 mM proline): reversed by the addition of proline
- TGF-beta-stimulated Smad2 phosphorylation (Smad2 phosphorylation; 12 hours HF, same dose range as GCN2 phosphorylation): reduced TGF-beta-stimulated Smad2 phosphorylation
- reconstituted prolyl-tRNA charging reaction with purified EPRS (EPRS): inhibited this reaction
- dermal ECM deposition (dermal ECM deposition): potently reduces dermal extracellular matrix (ECM) deposition; also recorded: reduces excess dermal ECM deposition
- eIF2α phosphorylation and AAR-associated transcripts in splenocytes ex vivo [1]: increased eIF2α phosphorylation and expression of AAR-associated transcripts
